We go through 13 molecules from patent publication US11542266B1, “Substituted piperidines as BTK inhibitors” (HAISCO PHARMACEUTICALS PTE. LTD., priority 2019, dated 2023).

Data set [1] has as its system Mino cells. The data set is described as follows: Inhibition of cell proliferation, Mino cells (Cell Viability Assay, 72 h). The data set is classed as cell-based, human. The method, then:
(§1) SU-DHL-4, Mino, and SU-DHL-6 cells, in the culture medium of RPMI1640+10% FBS, were cultured in an incubator at 37° C. under 5% CO2. Cells were plated in a 96-well plate. Specifically, SU-DHL-4 cells were at 20000/well, Mino and SU-DHL-6 cells were at 5000/well, with 90 μL/well. 10 μL of the compounds at different concentrations were added to each well. There were 3 replicate wells for each concentration, and the last column, added with DMSO, was used as a vehicle control group. The cultures were continued for 72 hours at 37° C. under 5% CO2. After 72 hours, 100 μL of detection reagent (Cell Viability Assay, Promega, G7573) was added to each well, and the cultures were uniformly mixed for 2 minutes, and incubated at room temperature for 10 minutes. The fluorescence signal value was measured with a microplate reader (PHERAstar FSX). The IC50 value of the compound on cell proliferation inhibition was calculated using Origin 9.2 software, and the inhibition rate at the highest concentration of the compound (Max inhi. %) was calculated according to formula (1). Max inhi. %=(1-T72 administration/T72 vehicle)×100 Formula (1).

Data set [2] deals with SU-DHL-6 cells. The data set is described as follows: Inhibition of cell proliferation, SU-DHL-6 cells (Cell Viability Assay, 72 h). Conditions: Homo sapiens. The class given is cell-based. How it is done:
as §1

In data set [3] the test system is SU-DHL-4 cells. The experiment in a line: Inhibition of cell proliferation, SU-DHL-4 cells (Cell Viability Assay, 72 h). The class given is cell-based, human. Conditions: Homo sapiens. How it is done: as §1
A short description of data set [4]: Pharmacokinetic experiment in rats (i.g. vehicle 0.5% MC). The data set is classed as in vivo. Conditions: male SD rats; for AUC(0-t): plasma, i.g. 20 mg/kg, vehicle 0.5% MC. The method, then:
Objective: In this experiment, a single dose of each test compound was administered to SD rats intravenously and intragastrically, the concentrations of the test compound in plasma of rats were measured, and the pharmacokinetic characteristics and bioavailability of the test compound in rats were evaluated.
Experimental animals: Male SD rats, 200-250 g, 6-8 weeks old, 6 rats/test compound. The experimental animals were purchased from CHENGDU DOSSY EXPERIMENTAL ANIMALS CO., LTD.
Experimental method: On the day of the experiment, 6 SD rats were randomly grouped according to their body weight. The animals were fasted with water available for 12 to 14 hours one day before the administration of a test compound, and were fed 4 hours after the administration.
Sampling: Before and after the administration, 0.1 ml of blood was taken from the orbit of the rats under isoflurane anesthesia, and placed in an EDTAK2 centrifuge tube. Centrifugation was carried out at 5000 rpm at 4° C. for 10 min and the plasma was collected.
Time points for plasma collection in G1 group: 0, 5 m, 15 m, 30 m, 1 h, 2 h, 4 h, 6 h, 8 h, and 24 h.
Time points for plasma collection in G2 group: 0, 15 m, 30 m, 1 h, 2 h, 4 h, 6 h, 8 h, and 24 h.
Before analysis and detection, all samples were stored at −80° C. The samples were analyzed quantitatively by LC-MS/MS.

Where [5] appears, read: Sprague-Dawley (SD), rat, po, read-out: AUC0-t.

Molecules are shown by their SMILES. Where a name gives a salt, the structure may show the parent alone. Read-outs that look alike come from different tables or passages of the source.

By IC50 is commonly meant the concentration at which inhibition is half-maximal. The low end stands for greater potency, the high end for weaker potency.

`Nc1ncnc2c1c(-c1ccc(Oc3ccccc3)cc1)nn2C1CCN(C2CCN(C3CCN(c4ccc5c(c4)C(=O)N(C4CCC(=O)NC4=O)C5=O)CC3)CC2)CC1` (centres unmarked) [Compound 2, 5-[4-[4-[4-[4-amino-3-(4-phenoxyphenyl)pyrazolo[3,4-d]pyrimidin-1-yl]-1-piperidyl]-1-piperidyl]-1-piperidyl]-2-(2,6-dioxo-3-piperidyl)isoindoline-1,3-dione]: the values for the IC50 in data set [1] (Homo sapiens), in data set [2] and in data set [3] were 633 nM, 26 nM and 41 nM, respectively. Moreover, the AUC(0-t) in data set [4] (setting [5]) stood at 18.6 ± 2.8 ng·h/mL.
With `Nc1ncnc2c1c(-c1ccc(Oc3ccccc3)cc1)nn2C1CCN(C2CCN(C3CCN(C4CCN(c5ccc6c(c5)C(=O)N(C5CCC(=O)NC5=O)C6=O)CC4)CC3)CC2)CC1` (centres unmarked) [Compound 12, 5-[4-[4-[4-[4-[4-amino-3-(4-phenoxyphenyl)pyrazolo[3,4-d]pyrimidin-1-yl]-1-piperidyl]-1-piperidyl]-1-piperidyl]-1-piperidyl]-2-(2,6-dioxo-3-piperidyl)isoindoline-1,3-dione pentatrifluoroacetate], the results for the IC50 in data set [1] (Homo sapiens), in data set [2] and in data set [3] were 183 nM, 106 nM and 56 nM, respectively.
With `Nc1ncnc2c1c(-c1ccc(Oc3ccccc3)cc1)nn2C1CCN(C2CCN(C3CN(c4ccc5c(c4)C(=O)N(C4CCC(=O)NC4=O)C5=O)C3)CC2F)CC1` (stereo not drawn) [Compound 49-2, cis-5-(3-(4-(4-amino-3-(4-phenoxyphenyl)-1H-pyrazolo[3,4-d]pyrimidin-1-yl)-3′-fluoro-[1,4′-bipiperidin]-1′-yl)azetidin-1-yl)-2-(2,6-dioxopiperidin-3-yl)isoindoline-1,3-dione-P2], in data set [1], the IC50 is 10 nM. Besides, the “F (%)” value in data set [4] (i.g. 20 mg/kg (0.5% MC) vs i.v. 5 mg/kg) worked out at 4.14 ± 2.1%. For the same molecule, the AUC(0-t) in data set [4] was 475 ± 237 ng·h/mL.
For the molecule `Nc1ncnc2c1c(-c1ccc(Oc3ccccc3)cc1)nn2C1CCN(C2CCN(C3CCN(C4CCN(C5CCN(c6ccc7c(c6)C(=O)N(C6CCC(=O)NC6=O)C7=O)CC5)CC4)CC3)CC2)CC1` (centres unmarked) [Compound 14, 5-[4-[4-[4-[4-[4-[4-amino-3-(4-phenoxyphenyl)pyrazolo[3,4-d]pyrimidin-1-yl]-1-piperidyl]-1-piperidyl]-1-piperidyl]-1-piperidyl]-1-piperidyl]-2-(2,6-dioxo-3-piperidyl)isoindoline-1,3-dione Hexatrifluoroacetate], the IC50 came out at 86 nM in data set [2] and 60 nM in data set [3].
For `Nc1ncnc2c1c(-c1ccc(Oc3ccccc3)cc1)nn2[C@@H]1CCN(C2CCN(C3CN(c4ccc5c(c4)C(=O)N(C4CCC(=O)NC4=O)C5=O)C3)CC2)C[C@H]1F` (relative stereo) [Compound 20-1, trans-5-(3-(4-(4-amino-3-(4-phenoxyphenyl)-1H-pyrazolo[3,4-d]pyrimidin-1-yl)-3-fluoro-[1,4′-bipiperidin]-1′-yl)azetidin-1-yl)-2-(2,6-dioxopiperidin-3-yl)isoindoline-1,3-dione], the midpoint of inhibition in data set [1], the IC50, lay at 32 nM. This molecule came in with an AUC(0-t) in data set [4] of 891 ± 164 ng·h/mL.
With `Nc1ncnc2c1c(-c1ccc(Oc3ccccc3)cc1)nn2C1CCN(CC2CN(C3CCN(c4ccc5c(c4)C(=O)N(C4CCC(=O)NC4=O)C5=O)CC3)C2)CC1` (centres unmarked) [Compound 10, 5-(4-(3-((4-(4-amino-3-(4-phenoxyphenyl)-1H-pyrazolo[3,4-d]pyrimidin-1-yl)piperidin-1-yl)methyl)azetidin-1-yl)piperidin-1-yl)-2-(2,6-dioxopiperidin-3-yl)isoindoline-1,3-dione Tetratrifluoroacetate], the IC50 in data set [1] (Homo sapiens) amounted to 405 nM; in data set [2], 77 nM.
As for `Nc1ncnc2c1c(-c1ccc(Oc3ccccc3)cc1)nn2C1CCN(CC2CCN(C3CCN(c4ccc5c(c4)C(=O)N(C4CCC(=O)NC4=O)C5=O)CC3)CC2)CC1` (centres unmarked) [Compound 9, 5-(4-((4-(4-amino-3-(4-phenoxyphenyl)-1H-pyrazolo[3,4-d]pyrimidin-1-yl)piperidin-1-yl)methyl)-[1,4′-bipiperidin]-1′-yl)-2-(2,6-dioxopiperidin-3-yl)isoindoline-1,3-dione tetratrifluoroacetate], the IC50 in data set [1] (Homo sapiens) was determined as 367 nM; in data set [2], 155 nM; in data set [3] it was 295 nM. Further, in data set [4] (setting [5]), the AUC(0-t) was 8.93 ± 4.3 ng·h/mL.
`Nc1ncnc2c1c(-c1ccc(Oc3ccccc3)cc1)nn2C1CCN(C2CN(C3CCC(Oc4ccc5c(c4)C(=O)N(C4CCC(=O)NC4=O)C5=O)CC3)C2)CC1` (centres unmarked) [Compound 37, 5-[4-[3-[4-[4-amino-3-(4-phenoxyphenyl)pyrazolo[3,4-d]pyrimidin-1-yl]-1-piperidyl]azetidin-1-yl]cyclohexoxy]-2-(2,6-dioxo-3-piperidyl)isoindoline-1,3-dione]: the IC50 in data set [3] was 631 nM. Besides, the AUC(0-t) in data set [4] (setting [5]) came to 473 ± 105 ng·h/mL.
Turning to `Nc1ncnc2c1c(-c1ccc(Oc3ccccc3)cc1)nn2C1CCN(C2CN(C3CN(c4ccc5c(c4)C(=O)N(C4CCC(=O)NC4=O)C5=O)C3)C2)CC1F` (stereo not drawn) [Compound 19, trans-5-(3-(4-(4-amino-3-(4-phenoxyphenyl)-1H-pyrazolo[3,4-d]pyrimidin-1-yl)-3-fluoropiperidin-1-yl)-[1,3′-biazetidin]-1′-yl)-2-(2,6-dioxopiperidin-3-yl)isoindoline-1,3-dione trifluoroacetate], the IC50 in data set [1] (Homo sapiens) stood at 48 nM; in data set [2] it was 782 nM.
Take `Nc1ncnc2c1c(-c1ccc(Oc3ccccc3)cc1)nn2C1CCN(CC2CCN(C3CN(c4ccc5c(c4)C(=O)N(C4CCC(=O)NC4=O)C5=O)C3)CC2)CC1` (centres unmarked) [Compound 6, 5-(3-(4-((4-(4-amino-3-(4-phenoxyphenyl)-1H-pyrazolo[3,4-d]pyrimidin-1-yl)piperidin-1-yl)methyl)piperidin-1-yl)azetidin-1-yl)-2-(2,6-dioxopiperidin-3-yl)isoindoline-1,3-dione tritrifluoroacetate]: the IC50 turned out to be 421 nM in data set [1] (Homo sapiens) and 166 nM in data set [2]. In addition, the AUC(0-t) in data set [4] (setting [5]) worked out at 328 ± 41 ng·h/mL.
As for `Nc1ncnc2c1c(-c1ccc(Oc3ccccc3)cc1)nn2C1CCN(c2cnc(N3CCC4(CC3)CN(c3ccc5c(c3)C(=O)N(C3CCC(=O)NC3=O)C5=O)C4)nc2)CC1` (centres unmarked) [Compound 5, 5-[7-[5-[4-[4-amino-3-(4-phenoxyphenyl)pyrazolo[3,4-d]pyrimidin-1-yl]-1-piperidyl]pyrimidin-2-yl]-2,7-diazaspiro[3.5]nonan-2-yl]-2-(2,6-dioxo-3-piperidyl)isoindoline-1,3-dione], in data set [4] (setting [5]), the AUC(0-t) came out at 81.7 ± 68 ng·h/mL.
Consider `Nc1ncnc2c1c(-c1ccc(Oc3ccccc3)cc1)nn2C1CCN(C2CCN(C3CN(c4cc5c(cc4F)C(=O)N(C4CCC(=O)NC4=O)C5=O)C3)CC2)CC1` (centres unmarked) [Compound 32, 5-(3-(4-(4-amino-3-(4-phenoxyphenyl)-1H-pyrazolo[3,4-d]pyrimidin-1-yl)-[1,4′-bipiperidin]-1′-yl)azetidin-1-yl)-2-(2,6-dioxopiperidin-3-yl)-6-fluoroisoindoline-1,3-dione], for which the IC50 stood at 188 nM in data set [1] (Homo sapiens), 393 nM in data set [2] and 330 nM in data set [3]. The AUC(0-t) in data set [4] (setting [5]) was 322 ± 64 ng·h/mL.
Turning to `Nc1ncnc2c1c(-c1ccc(Oc3ccccc3)cc1)nn2C1CCN(C2CN(C3CCN(C4CCN(C5CCN(c6ccc7c(c6)C(=O)N(C6CCC(=O)NC6=O)C7=O)CC5)CC4)CC3)C2)CC1` (centres unmarked) [Compound 11, 5-[4-[4-[4-[3-[4-[4-amino-3-(4-phenoxyphenyl)pyrazolo[3,4-d]pyrimidin-1-yl]-1-piperidyl]azetidin-1-yl]-1-piperidyl]-1-piperidyl]-1-piperidyl]-2-(2,6-dioxo-3-piperidyl)isoindoline-1,3-dione Hexatrifluoroacetate], the figures for the concentration for half-maximal inhibition (IC50) in data set [1] (Homo sapiens), in data set [2] and in data set [3] were 114 nM, 109 nM and 189 nM, respectively.
